Results as given in patent publication US12090141B2, “Use of clemizole compounds for treatment of inflammatory conditions” (priority 2015, dated 2024).

What was measured:
[1] = tested on: NASH mice; test: Body weight and liver weight in NASH mice (sacrifice 9 wk); conditions: for Mean body weight on the day of sacrifice vs Vehicle group / Mean liver weight on the day of sacrifice vs Vehicle group / Mean liver-to-body weight ratio on the day of sacrifice vs Vehicle group: 9 wk; for Body weight (mean ± SD): day of sacrifice 9 wk, n = 6, oral from 6 wks, A-C 258 then 129 mg/kg once daily, D 89 mg/kg twice daily; for Liver weight (mean ± SD) / Liver-to-body weight ratio (mean ± SD): sacrifice 9 wk, n = 6
Protocol: (§1) NASH was induced in 55 male mice by a single subcutaneous injection of 200 μg streptozotocin (STZ, Sigma-Aldrich, USA) solution 2 days after birth and feeding with high fat diet (HFD, 57 kcal % fat, cat #: HFD32, CLEA Japan, Inc., Japan) after 4 weeks of age. Mice that had been induced have NASH by this method are referred to below as NASH mice.
(§2) Compound D was orally administered at doses of 89 mg/kg twice daily.
C57BL/6 mice (14-day-pregnant female) were obtained from Japan SLC, Inc. (Shizuoka, Japan). All animals used in the study were housed and cared for in accordance with the Japanese Pharmacological Society Guidelines for Animal Use.

[2] = tested on: NASH mice; test: Whole blood glucose and plasma ALT in NASH mice; format: in vivo, C57BL/6 mice; conditions: for Whole blood glucose levels vs Vehicle group: during the study period, non-fasting; for Plasma ALT (mean ± SD): time of sacrifice, n = 6
Protocol: Non-fasting blood was collected in polypropylene tubes with anticoagulant (Novo-heparin, Mochida Pharmaceutical, Japan) from submandibular bleeding at 6 (before dosing), 7 and 8 weeks of age. The collected blood samples were centrifuged and the supernatant were collected as heparinized plasma.
Non-fasting blood glucose in whole blood was measured using LIFE CHECK (EIDIA Co. Ltd., Japan). Plasma ALT was measured by FUJI DRI-CHEM 7000 (Fujifilm Corporation, Japan).

[3] = tested on: NASH mice; test: NAFLD activity score, HE staining of liver sections of NASH mice; format: in vivo, C57BL/6 mice; conditions: for NAS (mean ± SD): n = 6, NAFLD activity score by Kleiner criteria; for Steatosis score 0, number of mice: n = 6, score 0 = <5%; for Steatosis score 1, number of mice: n = 6, score 1 = 5-33%; for Hepatocyte ballooning score 1, number of mice: n = 6, score 1 = Few Balloon cells; for Lobular inflammation score 2, number of mice: n = 6, score 2 = 2-4 foci/200x; for Hepatocyte ballooning score 2, number of mice: n = 6, score 2 = Many cells/prominent ballooning; for Lobular inflammation score 3, number of mice: n = 6, score 3 = >4 foci/200x; for Lobular inflammation score 1, number of mice: n = 6, score 1 = <2 foci/200x
Protocol: as §1, §2
(§3) For HE staining, sections were cut from paraffin blocks of liver tissue prefixed in Bouin's solution and stained with Lillie-Mayer's Hematoxylin (Muto Pure Chemicals Co., Ltd., Japan) and eosin solution (Wako Pure Chemical Industries). NAFLD Activity score (NAS) was calculated according to the criteria of Kleiner (Kleiner D E. et al., Hepatology, 2005; 41:1313). To visualize collagen deposition, Bouin's fixed liver sections were stained using picro-Sirius red solution (Waldeck, Germany).
Definition of NAS Components

[4] = tested on: NASH mice; test: Liver fibrosis area, Sirius red staining in NASH mice; format: in vivo, C57BL/6 mice; conditions: for Sirius red-positive area (mean ± SD): liver fibrosis area, n = 6
Protocol: as §3
For quantitative analysis of fibrosis areas bright field images of Sirius red-stained sections were captured around the central vein for livers using a digital camera (DFC280; Leica, Germany) at 200-fold magnification, and the positive areas in 5 fields/section were measured using ImageJ software (National Institute of Health, USA).

[5] = tested on: NASH induced HCC mice; test: Body weight and liver weight in NASH induced HCC mice (sacrifice 18 wk); format: in vivo; conditions: for Body weight (mean ± SD) / Liver weight (mean ± SD) / Liver-to-body weight ratio (mean ± SD): NASH induced HCC mice, 18 wk, n = 1-3
From the text: Table 1 below summarizes the treatment schedule.

[6] = tested on: mice with HCC; test: Macroscopic analysis of liver tumor nodules in mice with HCC; format: in vivo, C57BL/6 mice; conditions: for Maximum diameter of nodules (mean ± SD) / Number of nodules (mean ± SD): macroscopically visible tumor nodules on liver surface, n = 1-3
Protocol: The number of macroscopically visible tumor nodules formed on the liver surface was measured. The maximum diameter of macroscopically visible tumor nodules formed on the liver surface was measured.

[7] = tested on: hepatocellular carcinoma (HCC); test: Phase IIa open label pilot study of clemizole in subjects with hepatocellular carcinoma; format: in vivo, human
Protocol: The completed study treats up to 40 patients. Initial clinical results from two patients with hepatocellular carcinoma who were administered 200 mg clemizole for 3 or 5 months are described below.

[8] = target: CYP3A4 (Homo sapiens, UniProt P08684); test: Clemizole metabolism by CYP450 enzymes in vitro; format: in vitro ADME
[9] = tested on: HCC; conditions: phase 2 study, cited from earlier work
[10] = tested on: HCC; conditions: phase 3 study, cited from earlier work
[11] = treatment period, 4 mice per group

Chain of CYP3A4 (P08684 whole entry): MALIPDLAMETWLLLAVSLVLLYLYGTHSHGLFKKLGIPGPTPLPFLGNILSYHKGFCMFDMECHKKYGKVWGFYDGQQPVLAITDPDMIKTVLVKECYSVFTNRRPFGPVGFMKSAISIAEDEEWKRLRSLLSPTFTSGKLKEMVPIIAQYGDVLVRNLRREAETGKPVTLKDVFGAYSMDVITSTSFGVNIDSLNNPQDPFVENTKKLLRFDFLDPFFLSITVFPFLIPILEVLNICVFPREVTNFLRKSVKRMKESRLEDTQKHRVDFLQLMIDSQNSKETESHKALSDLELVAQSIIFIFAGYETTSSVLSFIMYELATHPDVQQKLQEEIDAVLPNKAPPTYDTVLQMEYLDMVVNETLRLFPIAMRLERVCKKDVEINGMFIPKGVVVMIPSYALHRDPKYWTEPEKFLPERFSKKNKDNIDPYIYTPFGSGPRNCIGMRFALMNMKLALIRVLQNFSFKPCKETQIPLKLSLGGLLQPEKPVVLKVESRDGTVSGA

SMILES	Mean body weight on the day of sacrifice vs Vehicle group [1]	Mean liver weight on the day of sacrifice vs Vehicle group [1]	Mean liver-to-body weight ratio on the day of sacrifice vs Vehicle group [1]	Body weight (mean ± SD) [1]	Liver weight (mean ± SD) [1]	Liver-to-body weight ratio (mean ± SD) [1]	Whole blood glucose levels vs Vehicle group [2]	Plasma ALT (mean ± SD) [2]	NAS (mean ± SD) [3]	Steatosis score 0, number of mice [3]	Steatosis score 1, number of mice [3]	Lobular inflammation score 2, number of mice [3]	Hepatocyte ballooning score 2, number of mice [3]	Lobular inflammation score 3, number of mice [3]	Fibrosis area at the time of sacrifice vs Vehicle group [4]	Sirius red-positive area (mean ± SD) [4]	Liver weight (mean ± SD) [5]	Liver-to-body weight ratio (mean ± SD) [5]	Maximum diameter of nodules (mean ± SD) ([6]; 18 wk)	Number of nodules (mean ± SD) ([6]; 18 wk)	also measured
CCN(CC)CCCC(C)Nc1ccnc2cc(Cl)ccc12 (stereo not drawn) [Compound A, Recemic mixture of R-chloroquine and S-chloroquine]	no significant differences	no significant differences	no significant differences	15.0 ± 1.9 g	1045 ± 243 mg	7.0 ± 1.4%	no significant differences	21 ± 13 U/L	5.2 ± 0.8	1	5	1	3	5	no significant differences	0.87 ± 0.23%	1443 ± 0 mg	8.2 ± 0.0%	6.1 ± 0.0 mm	2.0 ± 0.0	Hepatocyte ballooning score 1, number of mice [3]: 3; Body weight (mean ± SD) [5]: 17.5 ± 0.0 g; Mice died before reaching week 18 [5, 11]: Three out of 4
CCN(CC)CCC[C@@H](C)Nc1ccnc2cc(Cl)ccc12 [Compound B, R-chloroquine]	no significant differences	no significant differences	no significant differences	14.5 ± 2.4 g	934 ± 135 mg	6.5 ± 0.4%	no significant differences	14 ± 6 U/L	4.3 ± 0.5	1	5	4	5	–	no significant differences	0.78 ± 0.35%	1616 ± 635 mg	7.9 ± 3.0%	11.1 ± 7.0 mm	2.0 ± 1.4	NAS compared with the Vehicle group [3]: significant reduction; Lobular inflammation score 1, number of mice [3]: 2; Hepatocyte ballooning score 1, number of mice [3]: 1; Body weight (mean ± SD) [5]: 20.4 ± 0.3 g; Mice died before reaching week 18 [5, 11]: Two out of 4
CCN(CC)CCC[C@H](C)Nc1ccnc2cc(Cl)ccc12 [Compound C, S-chloroquine]	significantly decreased	significantly decreased	no significant differences	13.7 ± 1.3 g	810 ± 77 mg	5.9 ± 0.4%	no significant differences	9 ± 3 U/L	5.3 ± 0.5	–	6	4	6	2	no significant differences	0.90 ± 0.44%	1353 ± 178 mg	7.6 ± 0.1%	3.5 ± 5.0 mm	1.5 ± 2.1	Body weight (mean ± SD) [5]: 17.9 ± 2.8 g; Mice died before reaching week 18 [5, 11]: Two out of 4
Clc1ccc(Cn2c(CN3CCCC3)nc3ccccc32)cc1 [Compound D, clemizole]	no significant differences	no significant differences	no significant differences	–	1047 ± 76 mg	6.8 ± 0.4%	no significant differences	18 ± 10 U/L	4.3 ± 1.0	1	5	1	6	1	no significant differences	0.95 ± 0.39%	1710 ± 113 mg	6.3 ± 0.8%	0.7 ± 1.2 mm	0.3 ± 0.6	NAS compared with the Vehicle group [3]: significant reduction; Lobular inflammation score 1, number of mice [3]: 4; Mice died before reaching week 18 ([5]; male, C57BL/6, mouse, in vivo): one out of 4; Survived mice with absence of visible tumor nodules on the liver surface ([6]; 18 wk): 2 out of 3; Tumor formation in mouse livers (FIG. 8, representative images) ([6]; mouse, in vivo): inhibition of tumor formation; HCC status on follow up dynamic liver CT imaging ([7]; Patient #1, 200 mg clemizole orally thrice daily, after 3 months): the HCC remained stable; Tolerability (complaints or side effects) ([7]; Patient #1, 200 mg thrice daily, after 3 months): no complaints or side effects; HCC status on follow up dynamic liver magnetic resonance imaging ([7]; Patient #2, 200 mg clemizole orally thrice daily, after 5 months): the HCC remained stable; Tolerability (complaints or side effects) ([7]; Patient #2, 200 mg thrice daily, after 5 months): no complaints or side effects; Role of CYP3A4 in clemizole biotransformation in human liver [8]: mediates the majority of this drug biotransformation reaction
CNC(=O)c1cc(Oc2ccc(NC(=O)Nc3ccc(Cl)c(C(F)(F)F)c3)cc2)ccn1 [sorafenib]	–	–	–	–	–	–	–	–	–	–	–	–	–	–	–	–	–	–	–	–	Toxicity: diarrhea ([9]; all grades): over 40%; Toxicity: fatigue ([9]; all grades): 30%; Toxicity: hand-foot skin reaction ([9]; all grades): over 30%; Grade 3/4 drug-related toxicity: diarrhea [9]: 8.0%; Grade 3/4 drug-related toxicity: fatigue [9]: 9.5%; Grade 3/4 drug-related toxicity: hand-foot skin reaction [9]: 5.1%; Median time to progression (TTP) [9]: 4.2 months; Hypophosphatemia ([10]; grade 3): 11%; Thrombocytopenia ([10]; grade 3 or 4): 4%; Median time to radiologic progression [10]: 5.5 months; Overall incidence of treatment-related adverse events [10]: 80%
